In PubChem BioAssay AID2060499 (Molecular Pharmacology Branch, DTP, NCI, 2025):

Test system: 777334-354-R2-J4-PDC tumor spheroids with HUVEC/MSC, viability
Assay: Anticancer human tumor 777334-354-R2-J4-PDC patient-derived pancreatic adenocarcinoma cell line growth inhibition [GQUAD]
Conditions: for IC50: curve of first compound; for viability, T/C: stronger effect = lower value
Method in brief: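 Tumor cells were grown as complex spheroids with HUVEC endothelial cells and mesenchymal stem cells as stroma. G-quadruplex stabilizers were combined with targeted agents over half-log dilutions from near the clinical Cmax, or from 10 microM.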

[1] = second compound 0.0316 µM, first compound 0.0316 µM
[2] = second compound 0.0316 µM, first compound 0.316 µM
[3] = second compound 0.1 µM, first compound 0.0316 µM
[4] = second compound 0.1 µM, first compound 0.316 µM
[5] = second compound 0.316 µM, first compound 0.0316 µM
[6] = second compound 0.316 µM, first compound 0.316 µM
[7] = second compound 1 µM, first compound 0.0316 µM
[8] = second compound 1 µM, first compound 0.316 µM
[9] = second compound 3.16 µM, first compound 0.0316 µM
[10] = second compound 3.16 µM, first compound 0.316 µM
[11] = second compound 10 µM, first compound 0.0316 µM
[12] = second compound 10 µM, first compound 0.316 µM
[13] = second compound 0.0316 µM, first compound 0.1 µM
[14] = second compound 0.0316 µM, first compound 1 µM
[15] = second compound 0.0316 µM, first compound 3.16 µM
[16] = second compound 0.0316 µM, first compound 10 µM
[17] = second compound 0.1 µM, first compound 0.1 µM
[18] = second compound 0.1 µM, first compound 1 µM
[19] = second compound 0.1 µM, first compound 3.16 µM
[20] = second compound 0.1 µM, first compound 10 µM
[21] = second compound 0.316 µM, first compound 0.1 µM
[22] = second compound 0.316 µM, first compound 1 µM
[23] = second compound 0.316 µM, first compound 3.16 µM
[24] = second compound 0.316 µM, first compound 10 µM
[25] = second compound 1 µM, first compound 0.1 µM
[26] = second compound 1 µM, first compound 1 µM
[27] = second compound 1 µM, first compound 3.16 µM
[28] = second compound 1 µM, first compound 10 µM
[29] = second compound 3.16 µM, first compound 0.1 µM
[30] = second compound 3.16 µM, first compound 1 µM
[31] = second compound 3.16 µM, first compound 3.16 µM
[32] = second compound 3.16 µM, first compound 10 µM
[33] = second compound 10 µM, first compound 0.1 µM
[34] = second compound 10 µM, first compound 1 µM
[35] = second compound 10 µM, first compound 3.16 µM
[36] = second compound 10 µM, first compound 10 µM
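Further: spheroids exposed to compounds for 7 days before readout.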

Cc1[nH]c2ccccc2c1CCNCc1ccc(/C=C/C(=O)NO)cc1 + Cc1[nH]c2ccc(F)cc2c1-c1nc2c3cccnc3c3ncccc3c2[nH]1
IC50 (second compound 0.0316 µM): 0.189 µM
IC50 (second compound 0.1 µM): 0.215 µM
IC50 (second compound 0.316 µM): 0.207 µM
IC50 (second compound 1 µM): 0.176 µM
IC50 (second compound 3.16 µM): < 0.000999 µM
IC50 (second compound 10 µM): < 0.000999 µM
viability, T/C (second compound 0.0316 µM, first compound 0.000999 µM): 114%
viability, T/C (second compound 0.0316 µM, first compound 0.00316 µM): 91.3%
viability, T/C (second compound 0.0316 µM, first compound 0.00999 µM): 103%
viability, T/C [1]: 78.2%
viability, T/C (second compound 0.0316 µM, first compound 0.0999 µM): 74.5%
viability, T/C [2]: 33.8%
viability, T/C (second compound 0.1 µM, first compound 0.000999 µM): 103%
viability, T/C (second compound 0.1 µM, first compound 0.00316 µM): 94%
viability, T/C (second compound 0.1 µM, first compound 0.00999 µM): 102%
viability, T/C [3]: 90.6%
viability, T/C (second compound 0.1 µM, first compound 0.0999 µM): 73.1%
viability, T/C [4]: 38.5%
viability, T/C (second compound 0.316 µM, first compound 0.000999 µM): 90.2%
viability, T/C (second compound 0.316 µM, first compound 0.00316 µM): 92.2%
viability, T/C (second compound 0.316 µM, first compound 0.00999 µM): 109%
viability, T/C [5]: 92.7%
viability, T/C (second compound 0.316 µM, first compound 0.0999 µM): 79%
viability, T/C [6]: 33.1%
viability, T/C (second compound 1 µM, first compound 0.000999 µM): 97.9%
viability, T/C (second compound 1 µM, first compound 0.00316 µM): 80.3%
viability, T/C (second compound 1 µM, first compound 0.00999 µM): 78.4%
viability, T/C [7]: 91.2%
viability, T/C (second compound 1 µM, first compound 0.0999 µM): 70.4%
viability, T/C [8]: 29.2%
viability, T/C (second compound 3.16 µM, first compound 0.000999 µM): 46%
viability, T/C (second compound 3.16 µM, first compound 0.00316 µM): 37.7%
viability, T/C (second compound 3.16 µM, first compound 0.00999 µM): 41%
viability, T/C [9]: 49.3%
viability, T/C (second compound 3.16 µM, first compound 0.0999 µM): 52.5%
viability, T/C [10]: 38.7%
viability, T/C (second compound 10 µM, first compound 0.000999 µM): 46.3%
viability, T/C (second compound 10 µM, first compound 0.00316 µM): 24.8%
viability, T/C (second compound 10 µM, first compound 0.00999 µM): 38.9%
viability, T/C [11]: 35%
viability, T/C (second compound 10 µM, first compound 0.0999 µM): 41.6%
viability, T/C [12]: 32.1%

CC1COCCN1c1cc(-c2ccnn2C)c2ccnc(-c3ccn[nH]3)c2n1 (stereo unspecified) + Cc1[nH]c2ccc(F)cc2c1-c1nc2c3cccnc3c3ncccc3c2[nH]1
IC50 (second compound 0.0316 µM): 0.894 µM
IC50 (second compound 0.1 µM): 0.834 µM
IC50 (second compound 0.316 µM): 0.483 µM
IC50 (second compound 1 µM): 0.479 µM
IC50 (second compound 3.16 µM): < 0.0316 µM
IC50 (second compound 10 µM): < 0.0316 µM
viability, T/C [1]: 91.3%
viability, T/C [13]: 74.2%
viability, T/C [2]: 62.4%
viability, T/C [14]: 44.4%
viability, T/C [15]: 44%
viability, T/C [16]: 31.1%
viability, T/C [3]: 93.7%
viability, T/C [17]: 67.1%
viability, T/C [4]: 63.5%
viability, T/C [18]: 46.4%
viability, T/C [19]: 41.5%
viability, T/C [20]: 29.4%
viability, T/C [5]: 90.9%
viability, T/C [21]: 79.6%
viability, T/C [6]: 48.7%
viability, T/C [22]: 46.6%
viability, T/C [23]: 39.5%
viability, T/C [24]: 29.7%
viability, T/C [7]: 68.7%
viability, T/C [25]: 65.2%
viability, T/C [8]: 53.2%
viability, T/C [26]: 39.9%
viability, T/C [27]: 35.6%
viability, T/C [28]: 19.1%
viability, T/C [9]: 26.4%
viability, T/C [29]: 23.9%
viability, T/C [10]: 18.9%
viability, T/C [30]: 11.1%
viability, T/C [31]: 8.41%
viability, T/C [32]: 8.24%
viability, T/C [11]: 33.5%
viability, T/C [33]: 19.5%
viability, T/C [12]: 14.9%
viability, T/C [34]: 11.7%
viability, T/C [35]: 12.7%
viability, T/C [36]: 11.6%

COc1ccc([C@@H](O)c2cc(-c3ncnc4cc(N5CCOCC5)ccc34)c(F)cc2Cl)nn1 + CN(C)c1ccc(Nc2c3ccc(NC(=O)CCN4CCCC4)cc3nc3cc(NC(=O)CCN4CCCC4)ccc23)cc1
IC50 (second compound 0.0316 µM): 3.58 µM
IC50 (second compound 0.1 µM): 3.71 µM
IC50 (second compound 0.316 µM): 2.97 µM
IC50 (second compound 1 µM): 2.71 µM
IC50 (second compound 3.16 µM): 1.86 µM
IC50 (second compound 10 µM): 1.12 µM
viability, T/C [1]: 88.8%
viability, T/C [13]: 88.9%
viability, T/C [2]: 84.3%
viability, T/C [14]: 72.4%
viability, T/C [15]: 53.6%
viability, T/C [16]: 23.9%
viability, T/C [3]: 96.6%
viability, T/C [17]: 81.3%
viability, T/C [4]: 96.2%
viability, T/C [18]: 68.8%
viability, T/C [19]: 55.5%
viability, T/C [20]: 26.9%
viability, T/C [5]: 96.8%
viability, T/C [21]: 83.2%
viability, T/C [6]: 79.4%
viability, T/C [22]: 68.7%
viability, T/C [23]: 48.9%
viability, T/C [24]: 24.5%
viability, T/C [7]: 86.2%
viability, T/C [25]: 86.4%
viability, T/C [8]: 76.6%
viability, T/C [26]: 73.1%
viability, T/C [27]: 45.7%
viability, T/C [28]: 23.1%
viability, T/C [9]: 72.5%
viability, T/C [29]: 81.2%
viability, T/C [10]: 73.3%
viability, T/C [30]: 57.8%
viability, T/C [31]: 42.5%
viability, T/C [32]: 20.6%
viability, T/C [11]: 81.3%
viability, T/C [33]: 71.8%
viability, T/C [12]: 69.5%
viability, T/C [34]: 51%
viability, T/C [35]: 32.9%
viability, T/C [36]: 17.4%
